Where a name gives a salt, the structure may show the parent alone. Read-outs that look alike come from different tables or passages of the source.
How the values were obtained:
Caco-2 cells = conditions: tested concentrations (data not shown)
SARS-CoV-2 [1] = format: cell-based; conditions: Calu-3 cells
SARS-CoV-2 [2] = format: cell-based
HEK-293T cells = format: cell-based, human; conditions: tested concentrations (data not shown)
TMPRSS2 = molecular target: T1, TMPRSS2 (Homo sapiens, UniProt O15393); experiment: TMPRSS2 proteolytic activity in TMPRSS2-overexpressing HEK-293T cells, fluorogenic substrate BOC-QAR-AMC; format: cell-based
T1 construct: expressed in transfected cells; host or cells: HEK-293T
T1 sequence (O15393 whole entry): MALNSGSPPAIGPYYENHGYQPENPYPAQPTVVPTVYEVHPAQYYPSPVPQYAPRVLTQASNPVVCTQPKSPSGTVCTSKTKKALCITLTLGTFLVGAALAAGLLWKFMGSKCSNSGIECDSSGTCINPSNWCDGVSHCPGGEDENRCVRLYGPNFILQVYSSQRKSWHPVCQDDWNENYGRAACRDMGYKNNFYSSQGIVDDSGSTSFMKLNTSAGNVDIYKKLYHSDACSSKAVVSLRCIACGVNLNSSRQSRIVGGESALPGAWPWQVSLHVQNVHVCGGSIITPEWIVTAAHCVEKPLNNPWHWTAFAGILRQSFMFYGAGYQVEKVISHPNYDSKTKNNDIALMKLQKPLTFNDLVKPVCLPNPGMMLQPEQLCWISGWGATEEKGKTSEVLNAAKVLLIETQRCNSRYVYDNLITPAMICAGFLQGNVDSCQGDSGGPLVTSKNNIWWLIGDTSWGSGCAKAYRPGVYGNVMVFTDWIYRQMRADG
Description: B. Arbitrary fluorescence unit (AFU) measurements of control or TMPRSS-overexpressing cells incubated with BOC-QAR-AMC for 75 minutes at 37° C. are shown. Wells containing PBS and BOC-QAR-AMC were used as background fluorescence reads. C. Fluorescence of control or TMPRSS2-overexpressing cells was measured every 15 minutes for a total time of 180 minutes. D. The average proteolytic activity rate per minute of control or TMPRSS2-overexpressing cells. The fluorescent signal was measured by the UV filter (excitation 365 nm and emission 410 nm).
The results in A-C are presented as the means±SE from at least 3 independent experiments performed in duplicate and/or triplicate.
The following describes the development of an experimental framework for quantifying TMPRSS2 proteolytic activity. TMPRSS2 with a C-terminal V5 tag was overexpressed in a human cell line, HEK-293T, because of its high transfectability.
The effect of protease inhibitors on TMPRSS2 activity was tested.

CN(C)C(=O)COC(=O)Cc1ccc(OC(=O)c2ccc(NC(=N)N)cc2)cc1 [camostat mesylate, reference compound]
toxicity in Caco-2 cells (Caco-2 cells): nontoxic | SARS-CoV-2 plaque formation (SARS-CoV-2 [1]; 24 hours after infection): decreased SARS-CoV-2 plaque formation | SARS-CoV-2 plaque formation (SARS-CoV-2 [1]; 48 hours after infection): effect of camostat lasted | decrease in viral load (genomic SARS-CoV-2 from intracellular RNA) compared with untreated control cells (SARS-CoV-2 [2]; Caco-2 cells, 10 μM, twenty hours after infection): −3.9 fold

alpha 1 antitrypsin [A1AT]
toxic effects in viability assays (HEK-293T cells): did not demonstrate toxic effects | toxicity in Caco-2 cells (Caco-2 cells): nontoxic | IC50 (TMPRSS2; BOC-QAR-AMC, read-out: IC50 of inhibition of TMPRSS2 proteolytic activity): 357 nM | decrease in viral load (genomic SARS-CoV-2 from intracellular RNA) compared with untreated control cells (SARS-CoV-2 [2]): −2.6 fold

B1: secretory leukocyte protease inhibitor (protein, UniProt P03973 26-132, looked up)
Antileukoproteinase: SGKSFKAGVCPPKKSAQCLRYKKPECQSDWQCPGKKRCCPDTCGIKCLDPVDTPNPTRRKPGKCPVTYGQCLMLNPPNFCEMDGQCKRDLKCCMGMCGKSCVSPVKA
inhibition of TMPRSS2 proteolytic activity (TMPRSS2; all tested concentrations): none of the tested concentrations of SLPI inhibited TMPRSS2 proteolytic activity

From patent publication US20210338787A1 (priority 2020, published 2021)
